Laboratory results published in patent US7504420B2, “Compounds which inhibit beta-secretase activity and methods of use” (CoMentis, Inc., priority 2005, dated 2009).
Counter-ions that a name gives are not always drawn. Like-named read-outs stand apart in the source and are kept apart here.

Assays:
[1] = system: Aβ production in Chinese hamster ovary cells that over-express human APP695 with the London and Swedish mutations; test: Cellular Aβ IC50 determination (Aβ40 sandwich ELISA); conditions: 24 h
Procedure: The potency of compounds against memapsin 2 catalytic activity was determined in a cellular assay of Aβ production. […] Compounds are dissolved in DMSO to concentrations near 1 mM, and diluted into culture media to a final concentration near 4 μM (final 0.4% DMSO). Compounds were diluted serially and applied to cells in multi-well plates 48 h after seeding. Incubation was continued in 5% CO2 at 37 degrees C. for 24 h. Aliquots were removed and assayed for Aβ40 content using a sandwich ELISA (BioSource International). Amount of Aβ40 over the range of concentration of compounds, relative to control incubations, were fit to a 4-parameter IC50 model.

memapsin 2 = memapsin 2 (Homo sapiens, UniProt P56817); test: Inhibition of memapsin 2 catalytic activity (Ki); type: biochemical; conditions: memapsin 2, pH 4, 37° C.; read-out: M2K
memapsin 2, sequence (P56817 46-501): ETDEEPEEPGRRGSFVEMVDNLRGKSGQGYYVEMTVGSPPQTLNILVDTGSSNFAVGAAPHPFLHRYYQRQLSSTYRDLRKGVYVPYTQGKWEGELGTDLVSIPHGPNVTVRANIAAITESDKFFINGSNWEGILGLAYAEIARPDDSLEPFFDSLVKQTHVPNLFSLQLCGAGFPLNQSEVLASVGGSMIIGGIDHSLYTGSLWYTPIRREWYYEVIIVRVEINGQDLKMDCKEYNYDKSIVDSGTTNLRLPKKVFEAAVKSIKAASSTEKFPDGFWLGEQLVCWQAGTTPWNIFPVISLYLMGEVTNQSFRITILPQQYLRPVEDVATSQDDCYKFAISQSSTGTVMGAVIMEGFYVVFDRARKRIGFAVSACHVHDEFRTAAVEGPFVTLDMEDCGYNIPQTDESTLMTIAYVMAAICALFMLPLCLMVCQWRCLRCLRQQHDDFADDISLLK
Procedure: Potency of compounds were determined by measurement of their inhibition of memapsin 2 catalytic activity toward a fluorescent substrate. […] Briefly, assays were performed at pH 4, 37° C., by pre-incubation of memapsin 2 enzyme with compound for 20 minutes. Activity measure was initiated by addition of a fluorogenic substrate FS-2 (Bachem Americas, Torrance, Calif.). Fluorescent signal increase over time was measured as a rate of hydrolysis of the peptide substrate. […]

[2] = Cricetulus griseus, CHO, read-out: Cell, Aβ40, CHO cells over-expressing human APP695 (London and Swedish mutations), 24 h

SMILES | IC50 [1, 2] | Ki (memapsin 2) | other results
COc1cccc(CNCC(O)C(Cc2cc(F)cc(F)c2)NC(=O)c2cc(C(=O)NC(C)c3ccccc3)cc(N(C)S(C)(=O)=O)c2)c1 (centres unmarked) [N1-(1-(3,5-difluorophenyl)-3-hydroxy-4-(3-methoxybenzylamino)butan-2-yl)-5-(N-methylmethylsulfonamido)-N3-(1-phenylethyl)isophthalamide] | < 1 µM | – | –
COc1cccc(CNCC(O)C(Cc2ccccc2)NC(=O)c2cc(C(=O)NC(C)c3cccc(F)c3)cc(N(C)S(C)(=O)=O)c2)c1 (centres unmarked) [N1-(1-(3-fluorophenyl)ethyl)-N3-(3-hydroxy-4-(3-methoxybenzylamino)-1-phenylbutan-2-yl)-5-(N-methylmethylsulfonamido)isophthalamide] | – | < 0.3 µM | –
COc1cccc(CNCC(O)C(Cc2ccccc2)NC(=O)c2cc(C(=O)NC(C)C3COC4OCCC43)cc(N(C)S(C)(=O)=O)c2)c1 (centres unmarked) [N1-(1-(hexahydrofuro[2,3-b]furan-3-yl)ethyl)-N3-(3-hydroxy-4-(3-methoxybenzylamino)-1-phenylbutan-2-yl)-5-(N-methylmethylsulfonamido)isophthalamide] | – | > 0.501 µM | –
Cc1csc(CN(C)C(=O)c2cccc(C(=O)NC(Cc3ccccc3)C(O)CNCc3cccc(OCC(C)C)c3)c2)n1 (centres unmarked) [N1-(3-hydroxy-4-(3-isobutoxybenzylamino)-1-phenylbutan-2-yl)-N3-methyl-N3-((4-methylthiazol-2-yl)methyl)isophthalamide] | – | < 0.3 µM | –
COc1cccc(CNCC(O)C(Cc2ccccc2)NC(=O)c2cccc(C(=O)N(Cc3nc(C)cs3)CC(C)C)c2)c1 (centres unmarked) [N1-(3-hydroxy-4-(3-methoxybenzylamino)-1-phenylbutan-2-yl)-N3-isobutyl-N3-((4-methylthiazol-2-yl)methyl)isophthalamide] | – | < 0.3 µM | –
COc1ccccc1CN1CCC(CNCC(O)C(Cc2ccccc2)NC(=O)c2cc(C(=O)NC(C)c3ccccc3)cc(N(C)S(C)(=O)=O)c2)CC1 (centres unmarked) [N1-(3-hydroxy-4-((1-(2-methoxybenzyl)piperidin-4-yl)methylamino)-1-phenylbutan-2-yl)-5-(N-methylmethylsulfonamido)-N3-(1-phenylethyl)isophthalamide dihydrochloride] | – | – | IC50 ([1]; read-out: Cell, Aβ40, CHO cells over-expressing human APP695 (London and Swedish mutations), dihydrochloride): > 5 µM
COc1ccccc1CN1CCC(CNCC(O)C(Cc2ccccc2)NC(=O)c2cc(C(=O)NC(C)c3ccccc3)cc(N(C)S(C)(=O)=O)c2)CC1 (centres unmarked) [N1-(3-hydroxy-4-((1-(2-methoxybenzyl)piperidin-4-yl)methylamino)-1-phenylbutan-2-yl)-5-(N-methylmethylsulfonamido)-N3-(1-phenylethyl)isophthalamide] | – | – | IC50 ([1]; read-out: Cell, Aβ40, CHO cells over-expressing human APP695 (London and Swedish mutations)): 1 to 5 µM
CC(C)CN1CCC(CNCC(O)C(Cc2ccccc2)NC(=O)c2cc(C(=O)NC(C)c3ccccc3)cc(N(C)S(C)(=O)=O)c2)CC1 (centres unmarked) [N1-(3-hydroxy-4-((1-isobutylpiperidin-4-yl)methylamino)-1-phenylbutan-2-yl)-5-(N-methylmethylsulfonamido)-N3-(1-phenylethyl)isophthalamide dihydrochloride] | > 5 µM | – | –
Cc1cc(CNCC(O)C(Cc2ccccc2)NC(=O)c2cc(C(=O)NC(C)c3ccccc3)cc(N(C)S(C)(=O)=O)c2)[nH]n1 (centres unmarked) [N1-(3-hydroxy-4-((3-methyl-1H-pyrazol-5-yl)methylamino)-1-phenylbutan-2-yl)-5-(N-methylmethylsulfonamido)-N3-(1-phenylethyl)isophthalamide] | – | > 0.501 µM | –
CC(C)Cc1cncc(CNCC(O)C(Cc2ccccc2)NC(=O)c2cc(C(=O)NC(C)c3ccccc3)cc(N(C)S(C)(=O)=O)c2)c1 (centres unmarked) [N1-(3-hydroxy-4-((5-isobutylpyridin-3-yl)methylamino)-1-phenylbutan-2-yl)-5-(N-methylmethylsulfonamido)-N3-(1-phenylethyl)isophthalamide] | < 1 µM | – | –
CCOc1cccc(CNCC(O)C(Cc2ccccc2)NC(=O)c2cccc(C(=O)N(C)Cc3nc(C)cs3)c2)c1 (centres unmarked) [N1-(4-(3-ethoxybenzylamino)-3-hydroxy-1-phenylbutan-2-yl)-N3-methyl-N3-((4-methylthiazol-2-yl)methyl)isophthalamide] | – | < 0.3 µM | –
COc1cccc(CNCC(O)C(Cc2ccccc2)NC(=O)c2cccc(C(=O)N(Cc3nc(C)cs3)C3CCCCC3)c2)c1 (centres unmarked) [N1-cyclohexyl-N3-(3-hydroxy-4-(3-methoxybenzylamino)-1-phenylbutan-2-yl)-N1-((4-methylthiazol-2-yl)methyl)isophthalamide] | – | 0.301 to 0.5 µM | –
COc1cccc(CNCC(O)C(Cc2ccccc2)NC(=O)c2cccc(C(=O)N(Cc3nc(C)cs3)C3CCCC3)c2)c1 (centres unmarked) [N1-cyclopentyl-N3-(3-hydroxy-4-(3-methoxybenzylamino)-1-phenylbutan-2-yl)-N1-((4-methylthiazol-2-yl)methyl)isophthalamide] | – | < 0.3 µM | –

Second part, led by results:

IC50 [1, 2] | Ki (memapsin 2) | SMILES | other results
1 to 5 µM | – | COc1cccc(CN(CC(O)C(Cc2ccccc2)NC(=O)c2cc(C(=O)NC(C)c3ccccc3)cc(N(C)S(C)(=O)=O)c2)C(=O)CCC(=O)OCC(O)C2OC(=O)C(O)=C2O)c1 (centres unmarked) [2-(3,4-dihydroxy-5-oxo-2,5-dihydrofuran-2-yl)-2-hydroxyethyl 4-((2-hydroxy-3-(3-(N-methylmethylsulfonamido)-5-(1-phenylethylcarbamoyl)benzamido)-4-phenylbutyl)(3-methoxybenzyl)amino)-4-oxobutanoate] | –
– | < 0.3 µM | CC(NC(=O)c1cc(C(=O)NC(Cc2ccccc2)C(O)CNCc2cn(COCC[Si](C)(C)C)cn2)cc(N(C)S(C)(=O)=O)c1)c1ccccc1 (centres unmarked) [N1-(3-hydroxy-1-phenyl-4-((1-((2-(trimethylsilyl)ethoxy)methyl)-1H-imidazol-4-yl)methylamino)butan-2-yl)-5-(N-methylmethylsulfonamido)-N3-(1-phenylethyl)isophthalamide] | –
– | < 0.3 µM | COc1cccc(C(C)NCC(O)C(Cc2ccccc2)NC(=O)c2cccc(C(=O)N(C)Cc3nc(C)cs3)c2)c1 (centres unmarked) [N1-(3-hydroxy-4-(1-(3-methoxyphenyl)ethylamino)-1-phenylbutan-2-yl)-N3-methyl-N3-((4-methylthiazol-2-yl)methyl)isophthalamide] | –
< 1 µM | – | COc1cccc(CNCC(O)C(Cc2ccccc2)NC(=O)c2cc(C(=O)NC(C)c3nc(C)cs3)cc(N(C)S(C)(=O)=O)c2)c1 (centres unmarked) [N1-(3-hydroxy-4-(3-methoxybenzylamino)-1-phenylbutan-2-yl)-5-(N-methylmethylsulfonamido)-N3-(1-(4-methylthiazol-2-yl)ethyl)isophthalamide] | –
– | < 0.3 µM | COc1cccc(CNCC(O)C(Cc2ccccc2)NC(=O)c2cccc(C(=O)N(C)Cc3coc(C)n3)c2)c1 (centres unmarked) [N1-(3-hydroxy-4-(3-methoxybenzylamino)-1-phenylbutan-2-yl)-N3-methyl-N3-((2-methyloxazol-4-yl)methyl)isophthalamide] | –
– | > 0.501 µM | COc1cccc(CNCC(O)C(Cc2ccccc2)NC(=O)c2cccc(C(=O)N(C)Cc3cnccn3)c2)c1 (centres unmarked) [N1-(3-hydroxy-4-(3-methoxybenzylamino)-1-phenylbutan-2-yl)-N3-methyl-N3-(pyrazin-2-ylmethyl)isophthalamide] | –
– | > 0.501 µM | Cc1ccc(CNCC(O)C(Cc2ccccc2)NC(=O)c2cccc(C(=O)N(C)Cc3nc(C)cs3)c2)cc1 (centres unmarked) [N1-(3-hydroxy-4-(4-methylbenzylamino)-1-phenylbutan-2-yl)-N3-methyl-N3-((4-methylthiazol-2-yl)methyl)isophthalamide] | –
– | > 0.501 µM | CC(NC(=O)c1cc(C(=O)NC(Cc2ccccc2)C(O)CNCC2CCCN2C(C)C)cc(N(C)S(C)(=O)=O)c1)c1ccccc1 (centres unmarked) [N1-(3-hydroxy-4-((1-isopropylpyrrolidin-2-yl)methylamino)-1-phenylbutan-2-yl)-5-(N-methylmethylsulfonamido)-N3-(1-phenylethyl)isophthalamide] | –
< 1 µM | – | COc1ccnc(CNCC(O)C(Cc2ccccc2)NC(=O)c2cc(C(=O)NC(C)c3ccccc3)cc(N(C)S(C)(=O)=O)c2)c1 (centres unmarked) [N1-(3-hydroxy-4-((4-methoxypyridin-2-yl)methylamino)-1-phenylbutan-2-yl)-5-(N-methylmethylsulfonamido)-N3-(1-phenylethyl)isophthalamide] | –
1 to 5 µM | – | COc1cccc(CN(CC(O)C(Cc2ccccc2)NC(=O)c2cc(C(=O)NC(C)c3ccccc3)cc(N(C)S(C)(=O)=O)c2)C(=O)CCC(=O)NCCN2CCOCC2)c1 (centres unmarked) [N1-(3-hydroxy-4-(N-(3-methoxybenzyl)-4-(2-morpholinoethylamino)-4-oxobutanamido)-1-phenylbutan-2-yl)-5-(N-methylmethylsulfonamido)-N3-(1-phenylethyl)isophthalamide] | –
> 5 µM | – | COc1cccc(CN(CC(O)C(Cc2ccccc2)NC(=O)c2cc(C(=O)NC(C)c3ccccc3)cc(N(C)S(C)(=O)=O)c2)C(=O)CCC(=O)NCc2cccnc2)c1 (centres unmarked) [N1-(3-hydroxy-4-(N-(3-methoxybenzyl)-4-oxo-4-(pyridin-3-ylmethylamino)butanamido)-1-phenylbutan-2-yl)-5-(N-methylmethylsulfonamido)-N3-(1-phenylethyl)isophthalamide] | –
– | > 0.501 µM | Cc1csc(CN(C)C(=O)c2cccc(C(=O)NC(Cc3ccccc3)C(O)CNCc3ccccc3)c2)n1 (centres unmarked) [N1-(4-(benzylamino)-3-hydroxy-1-phenylbutan-2-yl)-N3-methyl-N3-((4-methylthiazol-2-yl)methyl)isophthalamide] | –
– | < 0.3 µM | COc1cccc(CNCC(O)C(Cc2ccccc2)NC(=O)c2cccc(C(=O)N(Cc3ccccc3)Cc3nc(C)cs3)c2)c1 (centres unmarked) [N1-benzyl-N3-(3-hydroxy-4-(3-methoxybenzylamino)-1-phenylbutan-2-yl)-N1-((4-methylthiazol-2-yl)methyl)isophthalamide] | –
